Earlier results as cited in patent US11246867B2, “Pharmaceutical composition comprising pimobendan” (Ceva Sante Animale, priority 2015, dated 2022).

Details: pH 5

- solubility in water: about 1 mg/liter
Structure (SMILES): COc1ccc(-c2nc3ccc(C4=NNC(=O)CC4C)cc3[nH]2)cc1 (stereo not shown) [pimobendan, 4,5-dihydro-6-[2-(4-methoxyphenyl)-1H-benzimidazol-5-yl]-5-methyl-3(2H)-pyridazone]
